Data as given in ChEMBL document CHEMBL1141900, “Synthesis and antibacterial activity of C2-fluoro, C6-carbamate ketolides, and their C9-oximes” (2005).
In brackets after ≈: the same amount, converted by molar mass.

Tests used:
Assay type in all cases: functional
Staphylococcus aureus = assay: Minimum inhibitory concentration of the compound against erythromycin-susceptible Staphylococcus aureus Smith OC4172 was determined
Streptococcus pneumoniae [1] = assay: Minimum inhibitory concentration of the compound against 3 […] Streptococcus pneumoniae OC4051 with an erm(B)-ribosomal methylase-mediated resistance was determined
Enterococcus faecalis = assay: Minimum inhibitory concentration of the compound againstEnterococcus faecalis ATCC 51299 with an erm(B)-encoded ribosomal methylase was determined
Haemophilus influenzae = assay: Minimum inhibitory concentration of the compound against Haemophilus influenzae OC4882 was determined
Streptococcus pneumoniae [2] = assay: Minimum inhibitory concentration of the compound against 3 […] Streptococcus pneumoniae OC4421 with an mef(A) efflux-mediated resistance was determined
Streptococcus pneumoniae [3] = assay: Minimum inhibitory concentration of the compound against erythromycin-susceptible Streptococcus pneumoniae was determined

For `CC[C@H]1OC(=O)[C@@](C)(F)C(=O)[C@H](C)[C@@H](O[C@@H]2O[C@H](C)C[C@H](N(C)C)[C@H]2O)[C@](C)(OC(=O)NC/C=C/c2cn(-c3cnccn3)cn2)C[C@@H](C)C(=O)[C@H](C)[C@H]2NC(=O)O[C@@]21C`, the MIC (Staphylococcus aureus) was 0.25 µg/mL (≈ 0.296 µM), the MIC (Streptococcus pneumoniae [1]) was 0.06 µg/mL (≈ 0.0711 µM) and the MIC (Enterococcus faecalis) was 16 µg/mL (≈ 19 µM). For the same compound, the MIC (Haemophilus influenzae) was 8 µg/mL (≈ 9.48 µM), the MIC (Streptococcus pneumoniae [2]) was 0.25 µg/mL (≈ 0.296 µM) and the MIC (Streptococcus pneumoniae [3]) was 0.03 µg/mL (≈ 0.0355 µM).

In the case of `CC[C@H]1OC(=O)[C@@](C)(F)C(=O)[C@H](C)[C@@H](O[C@@H]2O[C@H](C)C[C@H](N(C)C)[C@H]2O)[C@](C)(OC(=O)NC/C=C/c2ccc(-c3ccncn3)cc2)C[C@@H](C)C(=O)[C@H](C)[C@H]2NC(=O)O[C@@]21C`, the MIC (Staphylococcus aureus) is reported as 0.25 µg/mL (≈ 0.293 µM), the MIC (Streptococcus pneumoniae [1]) is reported as 0.06 µg/mL (≈ 0.0703 µM) and the MIC (Enterococcus faecalis) is reported as > 16 µg/mL. It also gave an MIC (Haemophilus influenzae) of 4 µg/mL (≈ 4.68 µM), an MIC (Streptococcus pneumoniae [2]) of 0.12 µg/mL (≈ 0.141 µM) and an MIC (Streptococcus pneumoniae [3]) of 0.03 µg/mL (≈ 0.0351 µM).

Work on `CC[C@H]1OC(=O)[C@@](C)(F)C(=O)[C@H](C)[C@@H](O[C@@H]2O[C@H](C)C[C@H](N(C)C)[C@H]2O)[C@](C)(OC(=O)NC/C=C/c2cncc(-c3ccccn3)c2)C[C@@H](C)C(=O)[C@H](C)[C@H]2NC(=O)O[C@@]21C` yielded an MIC (Staphylococcus aureus) of 0.25 µg/mL (≈ 0.293 µM), an MIC (Streptococcus pneumoniae [1]) of 0.06 µg/mL (≈ 0.0703 µM) and an MIC (Enterococcus faecalis) of 4 µg/mL (≈ 4.68 µM). For the same compound, the MIC (Haemophilus influenzae) was 8 µg/mL (≈ 9.37 µM), the MIC (Streptococcus pneumoniae [2]) was 0.12 µg/mL (≈ 0.141 µM) and the MIC (Streptococcus pneumoniae [3]) was 0.03 µg/mL (≈ 0.0351 µM).

In the case of `CC[C@H]1OC(=O)[C@@](C)(F)C(=O)[C@H](C)[C@@H](O[C@@H]2O[C@H](C)C[C@H](N(C)C)[C@H]2O)[C@](C)(OC(N)=O)C[C@@H](C)C(=O)[C@H](C)[C@H]2NC(=O)O[C@@]21C`, the MIC (Staphylococcus aureus) is reported as 1 µg/mL (≈ 1.52 µM), the MIC (Streptococcus pneumoniae [1]) is reported as > 16 µg/mL and the MIC (Enterococcus faecalis) is reported as > 16 µg/mL. It also gave an MIC (Haemophilus influenzae) of 8 µg/mL (≈ 12.1 µM), an MIC (Streptococcus pneumoniae [2]) of 2 µg/mL (≈ 3.03 µM) and an MIC (Streptococcus pneumoniae [3]) of 0.12 µg/mL (≈ 0.182 µM).

For `CC[C@H]1OC(=O)[C@@](C)(F)C(=O)[C@H](C)[C@@H](O[C@@H]2O[C@H](C)C[C@H](N(C)C)[C@H]2O)[C@](C)(OC(=O)NC/C=C/c2cccnc2)C[C@@H](C)/C(=N\O)[C@H](C)[C@H]2NC(=O)O[C@@]21C`, the MIC (Staphylococcus aureus) was 0.5 µg/mL (≈ 0.631 µM), the MIC (Streptococcus pneumoniae [1]) was 0.12 µg/mL (≈ 0.152 µM) and the MIC (Enterococcus faecalis) was > 16 µg/mL. It also gave an MIC (Haemophilus influenzae) of 2 µg/mL (≈ 2.53 µM), an MIC (Streptococcus pneumoniae [2]) of 0.5 µg/mL (≈ 0.631 µM) and an MIC (Streptococcus pneumoniae [3]) of 0.06 µg/mL (≈ 0.0758 µM).

For `CC[C@H]1OC(=O)[C@H](C)[C@@H](O[C@H]2C[C@@](C)(OC)[C@@H](O)[C@H](C)O2)[C@H](C)[C@@H](O[C@@H]2O[C@H](C)C[C@H](N(C)C)[C@H]2O)[C@](C)(O)C[C@@H](C)C(=O)[C@H](C)[C@@H](O)[C@]1(C)O` [ERYTHROMYCIN], the MIC (Staphylococcus aureus) was 0.5 µg/mL (≈ 0.681 µM), the MIC (Streptococcus pneumoniae [1]) was > 16 µg/mL and the MIC (Enterococcus faecalis) was > 16 µg/mL. For the same compound, the MIC (Haemophilus influenzae) was 8 µg/mL (≈ 10.9 µM), the MIC (Streptococcus pneumoniae [2]) was 4 µg/mL (≈ 5.45 µM) and the MIC (Streptococcus pneumoniae [3]) was 0.06 µg/mL (≈ 0.0818 µM).

`CC[C@H]1OC(=O)[C@@](C)(F)C(=O)[C@H](C)[C@@H](O[C@@H]2O[C@H](C)C[C@H](N(C)C)[C@H]2O)[C@](C)(OC(N)=O)C[C@@H](C)/C(=N\O)[C@H](C)[C@H]2NC(=O)O[C@@]21C` was tested, and the MIC (Staphylococcus aureus) was 1 µg/mL (≈ 1.48 µM), the MIC (Streptococcus pneumoniae [1]) was 2 µg/mL (≈ 2.96 µM) and the MIC (Enterococcus faecalis) was > 16 µg/mL. The MIC (Haemophilus influenzae) was 4 µg/mL (≈ 5.93 µM), the MIC (Streptococcus pneumoniae [2]) was 2 µg/mL (≈ 2.96 µM) and the MIC (Streptococcus pneumoniae [3]) was 0.12 µg/mL (≈ 0.178 µM).

With `CC[C@H]1OC(=O)[C@@](C)(F)C(=O)[C@H](C)[C@@H](O[C@@H]2O[C@H](C)C[C@H](N(C)C)[C@H]2O)[C@](C)(OC(=O)NC/C=C/c2ccc3ncccc3c2)C[C@@H](C)/C(=N\O)[C@H](C)[C@H]2NC(=O)O[C@@]21C` the MIC (Staphylococcus aureus) was 0.25 µg/mL (≈ 0.297 µM), the MIC (Streptococcus pneumoniae [1]) was 0.03 µg/mL (≈ 0.0356 µM) and the MIC (Enterococcus faecalis) was 2 µg/mL (≈ 2.38 µM). For the same compound, the MIC (Haemophilus influenzae) was 2 µg/mL (≈ 2.38 µM), the MIC (Streptococcus pneumoniae [2]) was 0.12 µg/mL (≈ 0.143 µM) and the MIC (Streptococcus pneumoniae [3]) was 0.03 µg/mL (≈ 0.0356 µM).

For `CC[C@H]1OC(=O)[C@@](C)(F)C(=O)[C@H](C)[C@@H](O[C@@H]2O[C@H](C)C[C@H](N(C)C)[C@H]2O)[C@](C)(OC(=O)NC/C=C/c2ccc(-n3cnnc3)cc2)C[C@@H](C)C(=O)[C@H](C)[C@H]2NC(=O)O[C@@]21C`, the MIC (Staphylococcus aureus) was 0.5 µg/mL (≈ 0.593 µM), the MIC (Streptococcus pneumoniae [1]) was 0.12 µg/mL (≈ 0.142 µM) and the MIC (Enterococcus faecalis) was > 16 µg/mL. The MIC (Haemophilus influenzae) was 8 µg/mL (≈ 9.49 µM), the MIC (Streptococcus pneumoniae [2]) was 0.5 µg/mL (≈ 0.593 µM) and the MIC (Streptococcus pneumoniae [3]) was 0.06 µg/mL (≈ 0.0712 µM).

`CC[C@H]1OC(=O)[C@@](C)(F)C(=O)[C@H](C)[C@@H](O[C@@H]2O[C@H](C)C[C@H](N(C)C)[C@H]2O)[C@](C)(OC(=O)NC/C=C/c2ccc(-c3cnccn3)cc2)C[C@@H](C)C(=O)[C@H](C)[C@H]2NC(=O)O[C@@]21C` gave an MIC (Staphylococcus aureus) of 0.25 µg/mL (≈ 0.293 µM), an MIC (Streptococcus pneumoniae [1]) of 0.06 µg/mL (≈ 0.0703 µM) and an MIC (Enterococcus faecalis) of 4 µg/mL (≈ 4.68 µM). For the same compound, the MIC (Haemophilus influenzae) was 4 µg/mL (≈ 4.68 µM), the MIC (Streptococcus pneumoniae [2]) was 0.06 µg/mL (≈ 0.0703 µM) and the MIC (Streptococcus pneumoniae [3]) was 0.03 µg/mL (≈ 0.0351 µM).

With `CC[C@H]1OC(=O)[C@@](C)(F)C(=O)[C@H](C)[C@@H](O[C@@H]2O[C@H](C)C[C@H](N(C)C)[C@H]2O)[C@](C)(OC(=O)NC/C=C/c2ccc(-c3ncccn3)o2)C[C@@H](C)C(=O)[C@H](C)[C@H]2NC(=O)O[C@@]21C` the MIC (Staphylococcus aureus) was 0.5 µg/mL (≈ 0.592 µM), the MIC (Streptococcus pneumoniae [1]) was 0.12 µg/mL (≈ 0.142 µM) and the MIC (Enterococcus faecalis) was > 16 µg/mL. For the same compound, the MIC (Haemophilus influenzae) was 16 µg/mL (≈ 19 µM), the MIC (Streptococcus pneumoniae [2]) was 0.5 µg/mL (≈ 0.592 µM) and the MIC (Streptococcus pneumoniae [3]) was 0.06 µg/mL (≈ 0.0711 µM).

`CC[C@H]1OC(=O)[C@@](C)(F)C(=O)[C@H](C)[C@@H](O[C@@H]2O[C@H](C)C[C@H](N(C)C)[C@H]2O)[C@](C)(OC(=O)NCc2ccc(-c3ccncn3)cc2)C[C@@H](C)C(=O)[C@H](C)[C@H]2NC(=O)O[C@@]21C` gave an MIC (Staphylococcus aureus) of 0.12 µg/mL (≈ 0.145 µM), an MIC (Streptococcus pneumoniae [1]) of 0.06 µg/mL (≈ 0.0725 µM) and an MIC (Enterococcus faecalis) of 16 µg/mL (≈ 19.3 µM). The MIC (Haemophilus influenzae) was 4 µg/mL (≈ 4.83 µM), the MIC (Streptococcus pneumoniae [2]) was 0.12 µg/mL (≈ 0.145 µM) and the MIC (Streptococcus pneumoniae [3]) was 0.03 µg/mL (≈ 0.0362 µM).
